Measurements from patent publication US7705119B1, “Compositions and methods useful for treating circulatory and hypovolemic shock” (University of Kentucky Research Foundation, priority 2007, dated 2010).
“Also recorded” adds a separate entry of the source. Square brackets hold non-standard residues; d marks the D form. Peptide text beside a SMILES is read from it.

How the values were obtained:
Sprague-Dawley rats [1] = assay: 30 minute inhibitor pre-treatment before 5.5 mg/kg Delt-E post hemorrhage injection; format: in vivo, rat; settings: for Maximum HR in BPM ± S.E. / Maximum MAP in mmHg ± S.E. / Survival Time in minutes ± S.E.: then 5.5 mg/kg Delt-E post hemorrhage
Source text: The hemorrhagic shock model used was a volume-controlled model similar to that of Summers et al. Acad Emerg Med. 10:587-93 (2003). Forty-six male Sprague-Dawley rats (about 341-411 grams) were acclimated to a laboratory environment for a week. In dwelling heparinized PE 10 catheters were placed in the femoral artery and the femoral vein of anesthetized rats. The two catheters were combined and exited suprascapularly, tied in place with braided silk, and covered with a piece of hypoallergenic mesh to prevent kinking. Rats were then placed in recovery cages for 24 hr, allowed access to food and water, and allowed unrestricted access to both catheters. The femoral artery catheter was used for volume-controlled hemorrhage and blood pressure measurements and the femoral vein catheter was used for Delt-E infusion. Each selected animal was randomly assigned 1 of […] post hemorrhage treat groups: 1 mL/100 g saline control (n=6), 2.85 mg/kg Delt-E (n=6), 4.2 mg/kg Delt-E (n=6), 5.5 mg/kg Delt-E (n=6), and 14 mg/kg Delt-E (n=6). Animals were also selected and randomly assigned to 1 of 4, 30-minute pre-treatment inhibitor groups: Naltriben Methane Sulfonate (NTB) (n=4), Naltrexone (n=4), Glibenclamide (n=4), and 7-Dehydrobenzylidine naltrexone (BNTX) (n=4) followed by a 5.5 mg/kg injection of Delt-E.
Opioid Inhibitors: The opioid inhibitors (naltrexone, naltriben methane sulfonate (NTB) and 7 Dehydrobenzylidine naltrexone (BNTX) and Glibenclamide were administered 30 minutes prior to hemorrhage. MAP and HR were recorded continuously before hemorrhage to ensure no adverse affects on MAP or HR occurred as a result of the pre-injection. At the end of 30 minutes, volume-controlled hemorrhage was induced followed by a post hemorrhage injection of 5.5 mg/kg Delt-E, the optimal dose found to increase hemodynamic stability. Naltrexone (10 mg/kg, Sigma-Aldrich), NTB (1 mg/kg, Sigma-Aldrich), and BNTX (1 mg/kg, Tocris Bioscience) were used as 30 minute pre-injection opioid receptor antagonists. Glibenclamide (10 mg/kg, Sigma Aldrich) was used as a KATP channel blocker.
Data Analysis: Statistical analysis was preformed using SPSS software with P value <0.05 being considered significant. The survival, MAP, HR and lactic acid values were analyzed using repeated measures analysis of variance (ANOVA) between groups to identify differences between groups. To evaluate differences between means, the ANOVA with post hoc least square differences were used (LSD analysis).

Sprague-Dawley rats [2] = assay: Post hemorrhage Delt-E infusion, volume-controlled hemorrhagic shock model without fluid resuscitation; format: in vivo, rat; settings: 14.0 mg/kg i.v. post hemorrhage
Source text: A murine hemorrhagic shock model was used to evaluate the effects of administration of Deltorphin-E (Delt-E), without concomitant fluid resuscitation, on hemodynamic status, plasma lactate levels, and survival rates.
The hemorrhagic shock model used was a volume-controlled model similar to that of Summers et al. Acad Emerg Med. 10:587-93 (2003). Forty-six male Sprague-Dawley rats (about 341-411 grams) were acclimated to a laboratory environment for a week. In dwelling heparinized PE 10 catheters were placed in the femoral artery and the femoral vein of anesthetized rats. […]
Treatment: Twenty-four hours after catheter placement, test rats (n=24) were infused in the femoral vein with either 2.85, 4.2, 5.5 or 14 mg/kg of Delt-E (Tyr-D-Ala-Phe-Ala-Ile-Gly-Asp-Phe-Ser-Ile-NH2; SEQ ID NO: 1) dissolved in 1.0 ml Lactated Ringers (LR) solution pH 7.4. […] Prior to hemorrhage MAP and HR were recorded to establish baseline levels. […] After the final mL of blood was removed the various venous catheter treatment injections were administered, MAP and HR were recorded continuously for the duration of survival or up to 6 hours.
Biomarker protocols: Survival time was determined by the post hemorrhage time after injection until death, or a predetermined 360 minute survival interval. […] Pulse pressure was determined by the difference (mmHg) between the systolic and diastolic pressure during a single cardiac cycle. […]

KATP channels = settings: Wild et al. 1991; cited from earlier work
[3] = inhibitor 10 mg/kg 30 min prior to hemorrhage
[4] = inhibitor 1 mg/kg 30 min prior to hemorrhage

Row | Molecule | blockade of post hemorrhage hemodynamic recovery / survival benefits of 5.5 mg/kg Delt-E (Sprague-Dawley rats [1]; [3]) | Maximum HR in BPM ± S.E. (Sprague-Dawley rats [1]; [3]) [BPM] | Maximum MAP in mmHg ± S.E. (Sprague-Dawley rats [1]; [3]) [mmHg] | Survival Time in minutes ± S.E. (Sprague-Dawley rats [1]; [3]) [min] | blockade of post hemorrhage hemodynamic recovery / survival benefits of 5.5 mg/kg Delt-E (Sprague-Dawley rats [1]; [4]) | Maximum HR in BPM ± S.E. (Sprague-Dawley rats [1]; [4]) [BPM] | Maximum MAP in mmHg ± S.E. (Sprague-Dawley rats [1]; [4]) [mmHg] | Survival Time in minutes ± S.E. (Sprague-Dawley rats [1]; [4]) [min] | other results
1 | COc1ccc(Cl)cc1C(=O)NCCc1ccc(S(=O)(=O)NC(=O)NC2CCCCC2)cc1 [Glibenclamide] | did not alter the survival advantage; also recorded: not blocked | 393 ± 43 | 56 ± 10 | 347 ± 15 |  |  |  |  | 
2 | O=C1CC[C@@]2(O)[C@H]3Cc4ccc(O)c5c4[C@@]2(CCN3CC2CC2)[C@H]1O5 [Naltrexone] | partially blocked | 419 ± 75 | 49 ± 8 | 95 ± 11 |  |  |  |  | 
3 | CC[C@H](C)[C@H](NC(=O)[C@H](CO)NC(=O)[C@H](Cc1ccccc1)NC(=O)[C@H](CC(=O)O)NC(=O)CNC(=O)[C@@H](NC(=O)[C@H](C)NC(=O)[C@H](Cc1ccccc1)NC(=O)[C@@H](C)NC(=O)[C@@H](N)Cc1ccc(O)cc1)[C@@H](C)CC)C(N)=O [Delt-E, Tyr-(D-Ala)-Phe-Ala-Ile-Gly-Asp-Phe-Ser-Ile-NH2] (H-Y[dA]FAIGDFSI-NH2) |  |  |  |  |  |  |  |  | Toxicity of dose (Sprague-Dawley rats [2]): toxic
4 | O=C1/C(=C/c2ccccc2)C[C@@]2(O)[C@H]3Cc4ccc(O)c5c4[C@@]2(CCN3CC2CC2)[C@H]1O5 [BNTX, 7-Dehydrobenzylidine naltrexone] |  |  |  |  | did not block | 400 ± 77 | 55 ± 12 | 356 ± 3 | 
5 | DPDPE |  |  |  |  |  |  |  |  | cardioprotective effect in the presence of Glibenclamide (KATP channels): could be negated by Glibenclamide
6 | Oc1ccc2c3c1O[C@H]1c4oc5ccccc5c4C[C@@]4(O)[C@@H](C2)N(CC2CC2)CC[C@]314 [NTB, Naltriben Methane Sulfonate] |  |  |  |  | blocked | 423 ± 68 | 37 ± 13 | 58 ± 12 | 
